This is an account of results in patent US11666562B2, “Ilaprazole for inhibiting the release of enveloped viruses from cells” (Northwestern University, priority 2020, dated 2023).

Entries after “also recorded” stand apart in the source; their conditions may differ.

The subject of one data set is 293T cells. Description: 293T cell toxicity. Type of data set: cell-based. As to conditions: at drug concentrations that inhibited release of HIV-1. The protocol: Drug potency and cell toxicity. EC50 calculations were determined by using AAT Bioquest's EC50 calculator. Cell toxicity at different concentrations of drugs as indicated was determine using the Cell Proliferation Reagent WST-1 (Roche Diagnostics) or cellular 96® Aqueous One Reagent viability reagent according to manufacturer's instructions. For 293T cells, the concentration of DMSO was 0.2% or less and assays were carried out with DMEM with 10% serum. Cell toxicity experiments were repeated twice.

The next data set deals with HSV-1. Nature of the data set: Transmission electron microscopy of HSV-1 infected Vero cells, location of virus particles. Type of data set: cell-based, Herpes simplex virus-1 (Kos strain). As to conditions: HSV-1, 18 μM ilaprazole, 24 h. As to the method:
FIG. 4. Inhibitory effect of Ilaprazole on HSV-2 and HSV-1 production. Vero cells infected with HSV-2 or HSV-1 at MOI of 0.1 and examined by transmission electron microscopy 24 h later. HSV-2 infected untreated cells (A & B) and cells treated with 18 μM ilaprazole (C & D). HSV-1 infected untreated cells (E & F) and cells treated with 18 μM ilaprazole (G & H). Eighty cells where virus particles were observed were examined. In the presence of ilaprazole, we observe no or very few particles in the cytoplasm. Treated cells also have an accumulation of electron dense material and particles associated with them. In untreated HSV-2 infected cells, we observed an average of 120 particles ranging from 28-204 […], and an average of 16 particles ranging from 10-22 in the nucleus. In treated HSV-2 infected cells, we observed 0 particles in the cytoplasm and an average of 31 particles ranging from 9-56 in the nucleus. In untreated HSV-1 infected cells we observed an average of 135 particles ranging from 12-152 in the cytoplasm, and an average of 35 particles ranging from 10-66 in the nucleus. In treated HSV-1 infected cells, we observed 0 particles in the cytoplasm and an average of 43 particles ranging from 15-166 in the nucleus. Arrows point to virus particles. Nuc, nucleus. Cyt, cytoplasm.
We next carried out a transmission electron microscopic examination of cells infected with HSV-2 at a MOI 0.1 in the presence and absence of 18 μM ilaprazole to determine if this drug causes the accumulation of virus particles in the nucleus of cells similar to tenatoprazole. […] In both heavily infected cells (FIGS. 4A & C) and mildly infected cells (FIGS. 4B & D), treatment lead to particles being detected in the nucleus and arrayed along the nuclear membrane but lacking in the cytosol. […] The lower total infectious virus detected in Table 3 (FIG. 7) is consistent with blockage of the virus passaging out of the nucleus into the cytoplasm where membranes are exchanged and virus becomes infectious. […]

The next data set deals with ENO1 (Homo sapiens, UniProt P06733). Nature of the data set: FTS assay against unrelated protein ENO1. Type of data set: binding. An excerpt: (§1) FIG. 1. Thermal shift data of Tsg101 by lead compound Tenatoprazole (N16). […] (B) Thermal shift data of three human proteins, DHPH, ENO1, and MEK4 not related to Tsg101 by lead compound tenatoprazole. […] (C) The addition of DTT abolishes the Tm shift in the FTS assay, consistent with prazole compounds forming a disulfide bond to Tsg101. Rabe: Rabeprazole, Ila: Ilaprazole, Tenato: tenatoprazole, Panto: pantoprazole, ref: reference.
(§2) This specific binding is consistent with a previous NMR structure in which tenatoprazole forms a covalent disulfide bond to Cys73 in the UEV domain of the protein (5). This disulfide bond formation can be prevented by including the reducing agent DTT in the assay (FIG. 1C). The addition of DTT abolished the Tsg101-UEV Tm shift caused by the prazoles. […]
(§3) Fluorescence thermal shift (FTS) screening to identify small molecule binding to Tsg101-UEV. […] Discovery of small molecule binding to target protein utilizes the observation that ligand binding affects protein thermal stability, and therefore can be detected through a shift in the protein's thermal denaturation (melting) temperature (Tm). […] A fluorescence dye Sypro-Orange (Invitrogen) was used for assay detection. The dye is excited at 473 nm and has a fluorescence emission at 610 nm. […] Fluorescence was detected on a real-time PCR machine CFX384 (Bio-Rad Laboratories).

A further data set concerns DHPH. Nature of the data set: FTS assay against unrelated protein DHPH. In kind it is binding, human.
Text: as §1, §2, §3

Chain of ENO1 (P06733 whole entry, the tested form may be a part): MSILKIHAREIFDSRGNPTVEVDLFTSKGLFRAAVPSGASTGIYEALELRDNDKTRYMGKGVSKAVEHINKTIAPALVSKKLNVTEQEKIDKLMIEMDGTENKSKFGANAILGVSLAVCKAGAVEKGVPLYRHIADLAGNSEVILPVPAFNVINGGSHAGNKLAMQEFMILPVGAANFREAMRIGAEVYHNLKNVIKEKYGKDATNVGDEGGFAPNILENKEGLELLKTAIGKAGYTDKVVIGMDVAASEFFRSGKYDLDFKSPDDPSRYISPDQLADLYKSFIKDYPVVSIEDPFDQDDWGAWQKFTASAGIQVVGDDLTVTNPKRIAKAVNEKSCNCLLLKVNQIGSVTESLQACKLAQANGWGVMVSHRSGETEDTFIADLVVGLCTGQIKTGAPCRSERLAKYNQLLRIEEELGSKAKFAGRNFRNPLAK

With `COc1ccnc(C[S+]([O-])c2nc3ccc(-n4cccc4)cc3[nH]2)c1C` (stereo not drawn) [Ilaprazole, 2-[(4-methoxy-3-methylpyridin-2-yl)methylsulfinyl]-6-pyrrol-1-yl-1H-benzimidazole], in the data set with 293T cells, the “Toxicity to 293T cells” value is listed as “did not detect toxicity”. Further, in the data set with HSV-1, the “Average number of virus particles in the nucleus” value stood at 43 particles, the “Range of number of virus particles in the nucleus” value is 15-166 particles and the “Virus particles in the cytoplasm” value turned out to be 0 particles.
On to `COc1ccc2[nH]c([S+]([O-])Cc3ncc(C)c(OC)c3C)nc2n1` (stereo not drawn) [Tenatoprazole], for which the “Effect on thermal stability (Tm shift) of ENO1” value at ENO1 was “negligible; also recorded: did not observe a Tm shift”. Also, the “Effect on thermal stability (Tm shift) of DHPH” value in the data set on DHPH was “negligible; also recorded: did not observe a Tm shift”.
